Test results: ChEMBL document CHEMBL1156029, “The discovery of thienopyridine analogues as potent IkappaB kinase beta inhibitors. Part II” (Bioorg Med Chem Lett, 2009)
Activity calls are given as the source filed them. The calls are words filed in the database; no cut-off is given here.

Tests used:
[1] = molecular target: T1, Inhibitor of nuclear factor kappa-B kinase subunit beta (Homo sapiens, UniProt O14920); assay: Inhibition of Flag epitope-tagged IKK-beta preincubated for 5 mins by scintillation proximity assay
T1 sequence (O14920 whole entry): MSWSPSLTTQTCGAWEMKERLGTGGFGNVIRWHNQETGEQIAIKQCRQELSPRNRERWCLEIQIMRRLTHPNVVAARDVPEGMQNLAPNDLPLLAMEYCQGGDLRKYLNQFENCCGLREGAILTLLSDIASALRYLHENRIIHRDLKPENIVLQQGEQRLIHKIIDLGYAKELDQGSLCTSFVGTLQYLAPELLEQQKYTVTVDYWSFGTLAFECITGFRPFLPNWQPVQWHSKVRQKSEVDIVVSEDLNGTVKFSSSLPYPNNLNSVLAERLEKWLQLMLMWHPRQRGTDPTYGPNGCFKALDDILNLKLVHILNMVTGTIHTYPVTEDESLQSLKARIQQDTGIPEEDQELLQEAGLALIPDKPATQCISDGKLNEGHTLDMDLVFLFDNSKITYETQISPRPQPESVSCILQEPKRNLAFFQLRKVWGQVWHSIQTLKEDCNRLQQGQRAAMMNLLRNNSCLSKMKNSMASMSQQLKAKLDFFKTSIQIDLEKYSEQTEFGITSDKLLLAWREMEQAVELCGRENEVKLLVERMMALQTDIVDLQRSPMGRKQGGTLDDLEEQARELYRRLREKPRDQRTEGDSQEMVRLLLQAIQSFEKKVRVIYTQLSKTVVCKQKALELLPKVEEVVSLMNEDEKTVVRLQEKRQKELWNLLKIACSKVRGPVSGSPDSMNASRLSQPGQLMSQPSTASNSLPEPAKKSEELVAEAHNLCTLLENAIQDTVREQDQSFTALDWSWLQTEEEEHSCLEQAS

[2] = Plasma concentration in mouse at 30 mg/kg, po after 120 mins; format: ADME, organism-based; set-up: dose 30 mg/kg, route oral
[3] = molecular target: T2, Ephrin type-A receptor 3 (Homo sapiens, UniProt P29320); assay: Inhibition of Hek
T2 sequence (P29320 whole entry): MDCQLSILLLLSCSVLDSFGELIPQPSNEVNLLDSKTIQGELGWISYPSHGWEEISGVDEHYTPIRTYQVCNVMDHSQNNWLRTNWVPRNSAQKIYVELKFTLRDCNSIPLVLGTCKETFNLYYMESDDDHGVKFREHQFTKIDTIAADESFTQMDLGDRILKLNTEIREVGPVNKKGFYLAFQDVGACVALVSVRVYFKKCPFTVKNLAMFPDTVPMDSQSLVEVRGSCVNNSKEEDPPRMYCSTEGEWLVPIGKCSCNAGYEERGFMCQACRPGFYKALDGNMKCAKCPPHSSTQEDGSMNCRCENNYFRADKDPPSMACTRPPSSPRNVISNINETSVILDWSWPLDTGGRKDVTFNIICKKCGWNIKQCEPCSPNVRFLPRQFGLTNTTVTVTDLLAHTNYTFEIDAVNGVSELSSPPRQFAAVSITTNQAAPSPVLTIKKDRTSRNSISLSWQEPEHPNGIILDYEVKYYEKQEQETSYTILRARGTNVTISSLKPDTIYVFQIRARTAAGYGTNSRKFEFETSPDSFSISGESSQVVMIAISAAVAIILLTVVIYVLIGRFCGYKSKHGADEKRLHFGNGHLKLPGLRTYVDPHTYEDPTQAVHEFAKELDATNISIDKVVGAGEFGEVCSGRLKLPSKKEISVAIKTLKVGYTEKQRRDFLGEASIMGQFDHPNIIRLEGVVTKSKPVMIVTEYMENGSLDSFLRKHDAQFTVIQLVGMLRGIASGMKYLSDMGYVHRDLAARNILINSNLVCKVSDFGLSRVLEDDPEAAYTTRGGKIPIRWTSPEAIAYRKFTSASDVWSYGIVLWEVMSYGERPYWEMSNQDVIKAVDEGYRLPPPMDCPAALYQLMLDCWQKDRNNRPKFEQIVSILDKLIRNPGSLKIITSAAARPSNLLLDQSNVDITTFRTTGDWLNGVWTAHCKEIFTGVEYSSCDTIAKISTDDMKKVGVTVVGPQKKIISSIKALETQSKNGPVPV

[4] = molecular target: Cyclin-dependent kinase 2/cyclin A (Homo sapiens) (UniProt P24941+P20248+P78396); assay: Inhibition of CDK2/cyclin A at 10 uM; format: protein-complex assay
[5] = molecular target: Tyrosine-protein kinase Lyn (Homo sapiens, UniProt P07948); assay: Inhibition of Lyn
Tyrosine-protein kinase Lyn, sequence (P07948 whole entry): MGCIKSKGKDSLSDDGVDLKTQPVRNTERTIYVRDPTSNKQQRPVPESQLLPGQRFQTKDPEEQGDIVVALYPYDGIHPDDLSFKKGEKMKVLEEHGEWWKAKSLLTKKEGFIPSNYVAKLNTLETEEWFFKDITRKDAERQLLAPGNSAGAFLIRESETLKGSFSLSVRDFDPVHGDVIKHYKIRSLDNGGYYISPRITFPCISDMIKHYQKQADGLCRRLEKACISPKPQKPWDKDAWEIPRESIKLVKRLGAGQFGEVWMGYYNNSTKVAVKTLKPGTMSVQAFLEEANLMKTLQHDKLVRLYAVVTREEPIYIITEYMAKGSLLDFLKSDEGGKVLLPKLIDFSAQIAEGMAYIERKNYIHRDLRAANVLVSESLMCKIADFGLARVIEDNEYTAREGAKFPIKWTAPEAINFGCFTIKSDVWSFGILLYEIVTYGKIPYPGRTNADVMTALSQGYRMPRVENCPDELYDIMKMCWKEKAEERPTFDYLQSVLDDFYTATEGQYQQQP

[6] = molecular target: Epidermal growth factor receptor (Homo sapiens, UniProt P00533)
Epidermal growth factor receptor, sequence (P00533 whole entry): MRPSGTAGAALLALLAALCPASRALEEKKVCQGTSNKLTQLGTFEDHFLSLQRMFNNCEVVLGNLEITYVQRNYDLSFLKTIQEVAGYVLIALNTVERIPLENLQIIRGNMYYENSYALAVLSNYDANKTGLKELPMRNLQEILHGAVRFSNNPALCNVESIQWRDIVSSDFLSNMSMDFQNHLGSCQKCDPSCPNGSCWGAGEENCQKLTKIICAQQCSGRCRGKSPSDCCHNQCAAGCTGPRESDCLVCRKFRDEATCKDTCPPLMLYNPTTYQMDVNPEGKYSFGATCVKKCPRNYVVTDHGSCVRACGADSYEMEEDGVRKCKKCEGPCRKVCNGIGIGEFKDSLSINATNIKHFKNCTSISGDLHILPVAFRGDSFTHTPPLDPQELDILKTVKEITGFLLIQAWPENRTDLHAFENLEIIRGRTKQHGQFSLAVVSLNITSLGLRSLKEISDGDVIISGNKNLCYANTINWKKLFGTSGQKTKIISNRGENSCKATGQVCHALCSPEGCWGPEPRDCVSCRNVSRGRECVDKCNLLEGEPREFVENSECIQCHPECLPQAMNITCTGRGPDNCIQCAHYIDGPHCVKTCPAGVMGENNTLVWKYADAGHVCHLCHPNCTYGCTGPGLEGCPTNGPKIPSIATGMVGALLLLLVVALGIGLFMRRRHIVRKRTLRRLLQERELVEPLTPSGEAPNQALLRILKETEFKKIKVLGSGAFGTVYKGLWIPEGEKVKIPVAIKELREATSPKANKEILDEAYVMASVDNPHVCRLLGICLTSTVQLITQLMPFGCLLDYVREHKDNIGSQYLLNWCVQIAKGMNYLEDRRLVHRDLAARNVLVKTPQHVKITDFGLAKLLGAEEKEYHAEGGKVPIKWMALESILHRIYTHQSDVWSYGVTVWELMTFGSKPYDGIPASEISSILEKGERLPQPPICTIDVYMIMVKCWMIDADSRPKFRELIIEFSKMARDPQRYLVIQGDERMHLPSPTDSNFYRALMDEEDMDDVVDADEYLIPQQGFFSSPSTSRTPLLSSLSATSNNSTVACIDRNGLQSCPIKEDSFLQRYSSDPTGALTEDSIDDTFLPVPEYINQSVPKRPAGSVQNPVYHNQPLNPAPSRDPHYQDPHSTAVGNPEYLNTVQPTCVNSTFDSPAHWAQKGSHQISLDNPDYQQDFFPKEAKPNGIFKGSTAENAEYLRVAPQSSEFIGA

IC50 [1] [µM] | concentration at 2 h [2] [µM] | IC50 [3] [µM] | Activity [4] | IC50 [5] [µM] | IC50 [6] [µM] | SMILES
0.28 | 15.5 | 9 | inactive | > 7 | – | CCCc1cc(N2CCC(O)CC2)nc2sc(C(N)=O)c(N)c12
0.12 | < 0.01 | 8 | inactive | > 7 | – | CCCc1cc(N2CCNCC2)nc2sc(C(N)=O)c(N)c12
0.041 | 0.02 | 7 | inactive | > 7 | – | CCCc1cc(N2CCC(N)CC2)nc2sc(C(N)=O)c(N)c12
0.57 | 3.1 | > 7 | inactive | > 7 | > 7 | CCCc1cc(N2CCCC(O)C2)nc2sc(C(N)=O)c(N)c12 (stereo unspecified)
